Marks after values point to notes of the source that are not given here.
Test system: osteoclast differentiation
Experiment: Osteoclast differentiation in co-culture of mouse bone marrow cells and ST2 cells, TRAP staining (Examples 8-9)
Assay type: cell-based
Settings: for % number of osteoclast (vs. solvent control group): 0.1 μM each, day 7; for activity at 0.1 µM: Mus musculus, Osteoclast, 168 h, Individual treatment (compounds), day 7, read-out: % number of osteoclast (vs. solvent control group)
Method in brief: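 Bone marrow cells from 6-8-week male ddY mice were co-cultured with ST2 stromal cells under 10^−8 M vitamin D3 and 10^−8 M dexamethasone, with compounds at 0.1 μM final (0.1% DMSO control), refreshed on days 3 and 5. On day 7, TRAP-positive osteoclasts with ≥6 nuclei were counted and expressed as % of solvent control (n=4).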

[1] = Combination treatment (alendronic acid + compounds)
[2] = Combination treatment (risedronic acid + compounds)

Row | SMILES | % number of osteoclast (vs. solvent control group) [1] | % number of osteoclast (vs. solvent control group) [2] | activity at 0.1 µM
1 | CN(C)c1nc(-c2ccc(OCCCCCOc3ccc(C(=N)NO)cc3)cc2)c(CCN2CCOCC2)s1 [Compound 266, N-hydroxy-4-(5-{4-[2-dimethylamino-5-(2-morpholin-4-yl-ethyl)-thiazol-4-yl]-phenoxy}-pentyloxy)-benzamidine] | 36 ± 9.6^ab % | 26 ± 4.3^ac % | 64 ± 4%
2 | COCCNc1nc(-c2ccc(OCCCCCOc3ccc(C(=N)NO)cc3)cc2)c(C)s1 [Compound 94, N-hydroxy-4-{5-[4-(2-(2-methoxyethyl)amino-5-methyl-1,3-thiazol-4-yl)phenoxy]pentyloxy}-benzamidine] | 20 ± 4.8^ab % | 16 ± 3.3^ac % | 45 ± 3%
3 | CN1CCN(c2sc(N3CCOCC3)nc2-c2ccc(OCCCCCOc3ccc(C(=N)NO)cc3)cc2)CC1 [Compound 289, N-hydroxy-4-(5-{4-[5-(4-methyl-piperazin-1-yl)-2-morpholine-4-yl-thiazol-4-yl]-phenoxy}-pentyloxy)-benzamidine] | 21 ± 7.4^b % | 10 ± 3.1^ac % | 36 ± 9.1%
4 | Cc1nc(-c2ccc(OCCCCCOc3ccc(C(=N)NO)cc3)cc2)c(CNC2CC2)s1 [Compound 307, N-hydroxy-4-{5-[4-(5-cyclopropylaminomethyl-2-methyl-thiazol-4-yl)-phenoxy]-pentyloxy}-benzamidine] | 30 ± 3.0^b % | 16 ± 4.8^ac % | 43 ± 8.9%
5 | CCCNc1nc(-c2ccc(OCCCCCOc3ccc(C(=N)NO)cc3)cc2)c(CC)s1 [Compound 98, N-hydroxy-4-{5-[4-(5-ethyl-2-propylamino-1,3-thiazol-4-yl)phenoxy]pentyloxy}-benzamidine] | 29 ± 1.6^ab % | 11 ± 3.2^ac % | 47 ± 3.2%
6 | CCCN(CCC)c1nc(-c2ccc(OCCCCCOc3ccc(C(=N)NO)cc3)cc2)c(CC2CCCC2)s1 [Compound 149, N-hydroxy-4-{5-[4-(5-cyclopentylmethyl-2-dipropylamino-1,3-thiazol-4-yl)phenoxy]pentyloxy}-benzamidine] | 40 ± 8.8% | 31 ± 2.5^ac % | 63 ± 9.9%
7 | N=C(NO)c1ccc(OCCCCCOc2ccc(-c3nc(C4CCCCC4)sc3CCN3CCSCC3)cc2)cc1 [Compound 249, N-hydroxy-4-(5-{4-[2-cyclohexyl-5-(2-thiomorpholin-4-yl-ethyl)-thiazol-4-yl]-phenoxy}-pentyloxy)-benzamidine] | 24 ± 4.0^ab % | 13 ± 4.8^ac % | 36 ± 4%
8 | CCN(CC)c1nc(-c2ccc(OCCCCCOc3ccc(C(=N)NO)cc3)cc2)c(CCN2CCOCC2)s1 [Compound 270, N-hydroxy-4-(5-{4-[2-diethylamino-5-(2-morpholin-4-yl-ethyl)-thiazol-4-yl]-phenoxy}-pentyloxy)-benzamidine] | 28 ± 4.5^b % | 14 ± 2.1^ac % | 45 ± 6.9%
9 | CCc1sc(NC(=O)c2cccnc2)nc1-c1ccc(OCCCCCOc2ccc(C(=N)NO)cc2)cc1 [Compound 101, N-hydroxy-4-{5-[4-(5-ethyl-2-(3-pyridylcarbonyl)amino-1,3-thiazol-4-yl)phenoxy]pentyloxy}-benzamidine] | 24 ± 3.2^ab % | 18 ± 2.8^ac % | 50 ± 5.9%
10 | CN1CCN(CCc2sc(C3CCCCC3)nc2-c2ccc(OCCCCCOc3ccc(C(=N)NO)cc3)cc2)CC1 [Compound 247, N-hydroxy-4-[5-(4-{2-cyclohexyl-5-[2-(4-methyl-piperazin-1-yl)-ethyl]-thiazol-4-yl}-phenoxy)-pentyloxy]-benzamidine] | 39 ± 3.7^ab % | 17 ± 4.5^ac % | 63 ± 4.2%
11 | Cc1nc(-c2ccc(OCc3ccc(COc4ccc(C(=N)NO)cc4)cc3)cc2)c(C(C)C)s1 [Compound 185, N-hydroxy-4-{4-[4-(5-isopropyl-2-methyl-1,3-thiazol-4-yl)-phenoxymethyl]-benzyloxy}-benzamidine] | 57 ± 13.9% | 45 ± 1.4^ac % | 81 ± 7%
12 | Cc1nc(-c2ccc(OCCCCCOc3ccc(C(=N)NO)cc3)cc2)c(CCN(CCO)CCO)s1 [Compound 225, N-hydroxy-4-{5-[4-(5-{2-[bis-(2-hydroxy-ethyl)-amino]-ethyl}-2-methyl-thiazol-4-yl)-phenoxy]-pentyloxy}-benzamidine] | 50 ± 4.8^ab % | 48 ± 4.9^ac % | 70 ± 7.1%
13 | CCCCc1sc(N(CCC)CCC)nc1-c1ccc(OCCCCCOc2ccc(C(=N)NO)cc2)cc1 [Compound 146, N-hydroxy-4-{5-[4-(5-butyl-2-dipropylamino-1,3-thiazol-4-yl)phenoxy]pentyloxy}-benzamidine] | 79 ± 7.8% | 60 ± 13.6^c % | 81 ± 8.9%
14 | CCNc1nc(-c2ccc(OCCCCCOc3ccc(C(=N)NO)cc3)cc2)c(CC)s1 [Compound 97, N-hydroxy-4-{5-[4-(5-ethyl-2-ethylamino-1,3-thiazol-4-yl)phenoxy]pentyloxy}-benzamidine] | 30 ± 5.7^ab % | 13 ± 4.3^ac % | 57 ± 5.2%
15 | CCCN1CCC(c2nc(-c3ccc(OCCCCCOc4ccc(C(=N)NO)cc4)cc3)c(CC3CCCC3)s2)CC1 [Compound 68, N-hydroxy-4-{5-[4-(5-cyclopentylmethyl-2-(1-propyl-piperidin-4-yl)-1,3-thiazol-4-yl)phenoxy]pentyloxy}-benzamidine] | 14 ± 1.4^ab % | 8 ± 1.9^ac % | 42 ± 6.9%
16 | Cc1nc(-c2ccc(OCCCCCOc3ccc(C(=N)NO)cc3)cc2)c(C(=O)NCCCn2ccnc2)s1 [Compound 284, N-hydroxy-4-{5-[4-(5-{3-imidazol-1-yl-propylcarbamoyl}-2-methyl-thiazol-4-yl)-phenoxy]-pentyloxy}-benzamidine] | 36 ± 5.0^ab % | 19 ± 5.8^ac % | 73 ± 7.7%
17 | CCc1sc(N(C)Cc2cccnc2)nc1-c1ccc(OCCCCCOc2ccc(C(=N)NO)cc2)cc1 [Compound 134, N-hydroxy-4-[5-(4-{5-ethyl-2-[methyl-(pyridin-3-ylmethyl)amino]-1,3-thiazol-4-yl}phenoxy)pentyloxy]-benzamidine] | 39 ± 3.4^ab % | 24 ± 4.0^ac % | 57 ± 4.3%
18 | CN(CCN1CCOCC1)c1nc(-c2ccc(OCCCCCOc3ccc(C(=N)NO)cc3)cc2)c(CN2CCSCC2)s1 [Compound 314, N-hydroxy-4-[5-(4-{2-[methyl-(2-morpholin-4-yl-ethyl)-amino]-5-thiomorpholin-4-ylmethyl-thiazol-4-yl}-phenoxy)-pentyloxy]-benzamidine] | 15 ± 1.7^ab % | 9 ± 3.2^ac % | 43 ± 7%
19 | CCc1sc(NC(=O)c2ccncc2)nc1-c1ccc(OCCCCCOc2ccc(C(=N)NO)cc2)cc1 [Compound 100, N-hydroxy-4-{5-[4-(5-ethyl-2-(4-pyridylcarbonyl)amino-1,3-thiazol-4-yl)phenoxy]pentyloxy}-benzamidine] | 14 ± 6.9^ab % | 12 ± 3.0^ac % | 46 ± 8.4%
20 | Cc1nc(-c2ccc(OCCCCCOc3ccc(C(=N)NO)cc3)cc2)cs1 [Compound 3, N-hydroxy-4-{5-[4-(2-methyl-1,3-thiazol-4-yl)phenoxy]pentyloxy}-benzamidine] | 40 ± 4.6^b % | 33 ± 6.8^c % | 52 ± 8.9%
21 | CCN(CC)CCc1sc(C)nc1-c1ccc(OCCCCCOc2ccc(C(=N)NO)cc2)cc1 [Compound 224, N-hydroxy-4-(5-{4-[5-(2-diethylamino-ethyl)-2-methyl-thiazol-4-yl]-phenoxy}-pentyloxy)-benzamidine] | 53 ± 2.9^ab % | 58 ± 10.8% | 77 ± 8.4%
22 | Cc1sc(NC(=O)CO)nc1-c1ccc(OCCCCCOc2ccc(C(=N)NO)cc2)cc1 [Compound 90, N-hydroxy-4-{5-[4-(2-hydroxyacetylamino-5-methyl-1,3-thiazol-4-yl)phenoxy]pentyloxy}-benzamidine] | 54 ± 8.6^ab % | 39 ± 8.4^ac % | 87 ± 10%
23 | Cc1sc(N(C)CCO)nc1-c1ccc(OCCCCCOc2ccc(C(=N)NO)cc2)cc1 [Compound 120] | 54 ± 2.4^ab % | 55 ± 9.1^ac % | 80 ± 6.5%
24 | CC(C)c1sc(N(C)Cc2cccnc2)nc1-c1ccc(OCCCCCOc2ccc(C(=N)NO)cc2)cc1 [Compound 141, N-hydroxy-4-[5-(4-{5-isopropyl-2-[methyl-(pyridin-3-ylmethyl)amino]-1,3-thiazol-4-yl}phenoxy)pentyloxy]-benzamidine] | 65 ± 2.8% | 60 ± 7.5^ac % | 84 ± 8.8%
